{
  "source": "patent US20250127168A1",
  "about": "“METHOD FOR PATHOGENS, MICROORGANISMS, AND PARASITES INACTIVATION” (New York Blood Center, Inc., priority 2018, published 2025)",
  "key": {"[1]": {"assay": "Neutralization of compound VI by sodium thiosulfate (LCMS)", "format": "physicochemical", "settings": "for first-order rate constant of reaction with Na2S2O3: Compound VI 100 μM, 1 mM Na2S2O3 in PBS", "protocol": "The rate of reaction of Compound VI, 100 μM with 1 mM Na2S2O3 in PBS was determined by LCMS analysis of the reaction mixture (FIG. 19). […] LCMS analysis of the reaction product confirmed that it was the bisthiosulfate ester (compound XXIII formed by reacting of compound VI with two molecules of Na2S2O3."}, "[2]": {"assay": "Neutralization and covalent sequestration of compound VI by nucleophile-functionalized solid phase agents (LCMS)", "format": "physicochemical", "protocol": "Sulfonylchloride functionalized divinylbenzene crosslinked polystyrene resin (Sigma-Aldrich Cat. no. 498211-5g) was mixed with 5 ml 2M sodium hydrogen sulfide solution (prepared by saturation of sodium sulfide nonahydrate solution in water with hydrogen sulfide) under argon. The mixture was sonicated for ca. 3 min and then stirred at 55° C. for 4 h. After that the resin was filtered and washed three times with deaerated water, there times with deaerated methanol, and two times with deaerated ether. The resin was dried under stream of argon and then under vacuum. Obtained, 1.039 g dry resin (compound XXVIII), thiosulfonate functionalized polystyrene/divinylbenzene resin. An aliquot of compound XXVIII was added to a solution of compound VI, 100 μM in PBS.\nAminoethyl groups functionalized methacrylate resin (Purolite Ltd, Llantrisant, Wales, UK, Product No. D6195, trade name Chromalite MAM2, 0.5 mmol amino groups per ml wet resin, 68% moisture), 300 mg, was dried by three evaporation from 2 ml dry N,N-dimethylformamide under vacuum at 35° C. […] The load of mercapto groups on the product, compound XXX, was determined using the Elman's procedure (Riener, C. K.; Kada, G.; Gruber, H. J., Anal. Bioanal. Chem., 2002, 373, 266-76) and was 0.21 mmol per gram of wet resin. […]\nTentagel S NH2 resin, 200 mg (Rapp Polymere GmbH, Tuebingen, Germany, product No. S30132, divinylbenzene cross-linked polystyrene resin grafted with amino group terminated polyethylene glycol) was swollen for couple of hours in 5 ml dry N,N-dimethylformamide and then the excess of solvent was pipetted off Benzotriazol-1-yl-oxytripyrrolidinophosphonium hexafluorophosphate, 151 mg, 2-(4-(triphenylmethylthio)phenyl)acetic acid, 119 mg, and anhydrous 1-hydroxybenzotriazole, 44 mg, were dissolved in 1.2 mL dry N,N-dimethylformamide. […] The mercapto groups load was determined using the Elman's procedure and was 0.12 mmol per gram of dry resin. […]"}, "[3]": {"tested_on": "21-mer synthetic oligodeoxyribonucleotide (SEQ ID NO:1)", "assay": "Reactivity toward nucleic acids, HPLC", "format": "biochemical", "settings": "10 μM oligonucleotide, 200 μM compound, PBS pH 6.7, 37° C., 6 h"}},
  "data": [
    {"smiles": "CN(CCCCN(C)CCCN1CC1)CCCN1CC1", "note": "[Compound VI, N^1,N^4-bis(3-(aziridin-1-yl)propyl)-N^1,N^4-dimethylbutane-1,4-diamine]", "values": [
      {"measurement": "residual compound VI concentration", "setting": "[1]; 10 mM Na2S2O3, 25° C., after 2 h, extrapolated", "value": "5.5e-07", "unit": "pM"},
      {"measurement": "first-order rate constant of reaction with Na2S2O3", "setting": "[1]; 6° C.", "value": 0.00614, "unit": "min⁻¹"},
      {"measurement": "first-order rate constant of reaction with Na2S2O3", "setting": "[1]; 25° C.", "value": 0.0379, "unit": "min⁻¹"},
      {"measurement": "half-live of compound VI", "setting": "[1]; in 10 mM Na2S2O3 and 25° C., extrapolated from rate", "value": 1.83, "unit": "min"},
      {"measurement": "concentration of compound VI in the mixture", "setting": "[2]; 100 μM in PBS with mercaptophenyl TentaGel S resin XXXII", "value": "time dependent decreasing"},
      {"measurement": "concentration of compound VI in the mixture", "setting": "[2]; 100 μM in PBS with mercaptophenyl methacrylate resin XXX", "value": "time dependent decreasing"},
      {"measurement": "concentration of compound VI in the mixture", "setting": "[2]; 100 μM in PBS with thiosulfonate functionalized resin XXVIII", "value": "time dependent decreasing"}
    ]},
    {"smiles": "CN(CCCCN(C)CCCN1CC1)CCCN(C)CCCN1CC1", "note": "[Compound X]", "values": [
      {"measurement": "covalent adducts with the oligonucleotide (HPLC)", "setting": "[3]", "value": "appearance of covalent adducts"}
    ]}
  ]
}
